According to PubChem BioAssay (NCI):
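Step 1: Grow cells in 96-well plates. Step 2: Expose to compound for 48 hours at 5 concentrations. Step 3: Interpolate endpoints linearly; if unreached, use highest concentration. At the GI50, growth is halved. TGI marks complete inhibition of growth.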

How the values were obtained:
Test in all cases: growth of human tumour cells (NCI), 48 h
OVCAR-4 ovarian = system: OVCAR-4 ovarian
COLO 205 colon = system: COLO 205 colon
PC-3 prostate = system: PC-3 prostate
CCRF-CEM leukemia = system: CCRF-CEM leukemia
SN12C renal = system: SN12C renal
786-0 renal = system: 786-0 renal
MOLT-4 leukemia = system: MOLT-4 leukemia
DU-145 prostate = system: DU-145 prostate
UO-31 renal = system: UO-31 renal
A498 renal = system: A498 renal

| SMILES | GI50 (OVCAR-4 ovarian) | TGI (OVCAR-4 ovarian) | GI50 (COLO 205 colon) | GI50 (PC-3 prostate) | TGI (PC-3 prostate) | GI50 (CCRF-CEM leukemia) | TGI (CCRF-CEM leukemia) | GI50 (SN12C renal) | TGI (SN12C renal) | GI50 (786-0 renal) | TGI (786-0 renal) | GI50 (MOLT-4 leukemia) | TGI (MOLT-4 leukemia) | GI50 (DU-145 prostate) | TGI (DU-145 prostate) | GI50 (UO-31 renal) | TGI (UO-31 renal) | GI50 (A498 renal) | TGI (A498 renal) | TGI (COLO 205 colon) |
| --- | --- | --- | --- | --- | --- | --- | --- | --- | --- | --- | --- | --- | --- | --- | --- | --- | --- | --- | --- | --- |
| Cc1cccc(NC(=O)c2sc3nc4c(cc3c2N)C(=O)CCC4)c1 | 0.706 µM | 32.5 µM | 0.231 µM | 0.397 µM | > 48.1 µM | 2.26 µM | > 100 µM | 0.74 µM | > 63.8 µM | 0.527 µM | > 41 µM | 25 µM | > 100 µM | 0.302 µM | > 30 µM | 13.9 µM | 51.2 µM | 0.0656 µM | 0.801 µM |  |
| COc1cc(CNc2nc3cc(N)cc(N)c3nc2-c2ccccc2)cc(OC)c1 | 0.014 µM | 0.974 µM | 2.38 µM | 3.05 µM | 14.4 µM | 1.72 µM | 5.68 µM | 11.4 µM | > 100 µM | 12.7 µM | 44.2 µM | 3.02 µM | > 100 µM | 29.7 µM | > 100 µM | 4.05 µM | > 100 µM | 90.8 µM | > 100 µM | 6.04 µM |
| COc1ccc2sc3c(NCCCN)nc4ccccc4c3c(=O)c2c1 | 1.86 µM | 3.56 µM | 1.8 µM | 1.5 µM | 3.05 µM | 1.79 µM | 3.66 µM | 1.63 µM | 3.11 µM | 1.63 µM | 3.11 µM | 1.48 µM | 3.17 µM | 1.81 µM | 3.31 µM | 1.43 µM | 2.82 µM | 1.52 µM | 5.59 µM | 3.71 µM |
| CC1=C(C(=O)Nc2ccccc2)C(c2ccc(N(C)C)cc2)C(C(=O)Nc2ccccc2)=C(C)N1 |  | > 100 µM |  |  | > 100 µM |  | 57.7 µM |  | > 100 µM |  | > 100 µM |  | > 96.6 µM |  | > 91.7 µM |  | 65.4 µM |  | > 100 µM | 17.3 µM |
